Where two headings read alike, the source gives them in different places.
Biological target: human E3 ligase component cereblon (CRBN) (Homo sapiens (Human), UniProt Q96SW2)
Test: Cereblon (CRBN) target engagement, NanoBRET TE Intracellular E3 Ligase Assay in transfected HEK-293T cells
Description: HEK-293T cells were harvested ca. 75% confluent with trypsin and plated (500,000 cells/well) in a 6-well tissue culture plate in 2 mL of Dulbecco's Modified Eagle Medium (DMEM)^+10% Fetal Bovine Serum (FBS) and incubated overnight at 37° C.
The NanoLue-CRBN fusion vector (Nluc-CRBN; Promega) contains the coding region of human E3 ligase component cereblon (CRBN) fused to the C-terminus of the NanoLuc luciferase coding region. A mixture of 10 ng Nluc-CRBN and 990 ng DDB1 Expression Vector (Promega) was added to 125 μL Opti-Minimum Essential Medium (Opti-MEM™; Thermo Fisher) along with 2 μL P3000 reagent (Thermo Fisher) in a 1.5 mL epppendorf tube. This solution was added to Lipofectamine 3000 transfection reagent (5 μL; Thermo Fisher) in Opti-MEM (125 μL), mixed well, and incubated for 15 minutes at room temperature. The transfection mixture was added dropwise to cells and incubated overnight at 37° C., 5% CO2. Following transfection, cells were washed once with PBS, and trypsin (250 μL) was added and incubated 30-45 see to dislodge cells. Complete media (2 mL) was added to resuspend cells to form a single cell suspension. Cells were centrifuged at 320×g for 5 min at room temperature, the supernatant was removed, and the cell pellet resuspended in Opti-MEM (3 mL; wash step repeated ×2). After final resuspension in 5 mL Opti-MEM, cells were counted and resuspended at 200,000 cells/mL in Opti-MEM.
Cereblon target engagement was monitored by Bioluminescence Resonance Energy Transfer (BRET) in transfected HEK-293T cells using the NanoBRET TE Intracellular E3 Ligase Assay (Promega). Briefly, 384-well plates (white opaque plates, Corning 3574, low binding surface) were seeded with transfected HEK-293T cells (38 μl/well). 2 μL of 10 μM CRBN tracer (diluted 1:5 in Tracer Dilution Buffer) was added to each well. Plates were centrifuged at 320×g for 1 min at room temperature. […] Plates were shaken for 2 minutes on a microplate shaker to mix compounds. Plates were centrifuged at 320×g for 1 min at room temperature, and subsequently incubated for 2 hours at 37° C.
After incubation, plates were allowed to cool to room temperature for 15 minutes. 20 μL of 3X Complete NanoBRET™ Nano-Glo® Substrate plus Inhibitor Solution (Promega, 1:166 Substrate and 1:500 dilution of Extracellular NanoLuc® Inhibitor diluted in Opti-MEM) were added to each well, Plates were incubated with shaking at room temperature for 3 minutes covered with foil. Plates were read on a CLARIOstar microplate reader (BMG LabTech), measuring at 450 nm (donor emission) and 610 nm (acceptor emission). The IC50 values were determined by regression to best fit four-parameter logistic curves using GraphPad Prism.

[1] = Table 3, 2 hours at 37° C., read-out: CRBN Binding EC50
[2] = second (untitled) table after Table 3, read-out: CRBN Binding EC50

Chain of human E3 ligase component cereblon (CRBN) (Q96SW2 whole entry): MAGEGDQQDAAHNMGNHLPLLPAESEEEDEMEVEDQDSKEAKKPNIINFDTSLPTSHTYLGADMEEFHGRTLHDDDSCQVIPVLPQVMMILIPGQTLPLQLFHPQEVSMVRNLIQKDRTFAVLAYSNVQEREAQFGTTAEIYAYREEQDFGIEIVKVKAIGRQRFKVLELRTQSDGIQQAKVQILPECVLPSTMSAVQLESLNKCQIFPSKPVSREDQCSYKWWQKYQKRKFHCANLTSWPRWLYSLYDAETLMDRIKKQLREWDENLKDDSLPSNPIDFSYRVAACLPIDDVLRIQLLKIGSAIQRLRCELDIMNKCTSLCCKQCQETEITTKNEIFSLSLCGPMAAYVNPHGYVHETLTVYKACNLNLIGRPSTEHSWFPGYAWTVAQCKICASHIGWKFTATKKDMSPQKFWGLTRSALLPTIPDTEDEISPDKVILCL
Chain of human E3 ligase component cereblon (CRBN) (Q16531 whole entry partner): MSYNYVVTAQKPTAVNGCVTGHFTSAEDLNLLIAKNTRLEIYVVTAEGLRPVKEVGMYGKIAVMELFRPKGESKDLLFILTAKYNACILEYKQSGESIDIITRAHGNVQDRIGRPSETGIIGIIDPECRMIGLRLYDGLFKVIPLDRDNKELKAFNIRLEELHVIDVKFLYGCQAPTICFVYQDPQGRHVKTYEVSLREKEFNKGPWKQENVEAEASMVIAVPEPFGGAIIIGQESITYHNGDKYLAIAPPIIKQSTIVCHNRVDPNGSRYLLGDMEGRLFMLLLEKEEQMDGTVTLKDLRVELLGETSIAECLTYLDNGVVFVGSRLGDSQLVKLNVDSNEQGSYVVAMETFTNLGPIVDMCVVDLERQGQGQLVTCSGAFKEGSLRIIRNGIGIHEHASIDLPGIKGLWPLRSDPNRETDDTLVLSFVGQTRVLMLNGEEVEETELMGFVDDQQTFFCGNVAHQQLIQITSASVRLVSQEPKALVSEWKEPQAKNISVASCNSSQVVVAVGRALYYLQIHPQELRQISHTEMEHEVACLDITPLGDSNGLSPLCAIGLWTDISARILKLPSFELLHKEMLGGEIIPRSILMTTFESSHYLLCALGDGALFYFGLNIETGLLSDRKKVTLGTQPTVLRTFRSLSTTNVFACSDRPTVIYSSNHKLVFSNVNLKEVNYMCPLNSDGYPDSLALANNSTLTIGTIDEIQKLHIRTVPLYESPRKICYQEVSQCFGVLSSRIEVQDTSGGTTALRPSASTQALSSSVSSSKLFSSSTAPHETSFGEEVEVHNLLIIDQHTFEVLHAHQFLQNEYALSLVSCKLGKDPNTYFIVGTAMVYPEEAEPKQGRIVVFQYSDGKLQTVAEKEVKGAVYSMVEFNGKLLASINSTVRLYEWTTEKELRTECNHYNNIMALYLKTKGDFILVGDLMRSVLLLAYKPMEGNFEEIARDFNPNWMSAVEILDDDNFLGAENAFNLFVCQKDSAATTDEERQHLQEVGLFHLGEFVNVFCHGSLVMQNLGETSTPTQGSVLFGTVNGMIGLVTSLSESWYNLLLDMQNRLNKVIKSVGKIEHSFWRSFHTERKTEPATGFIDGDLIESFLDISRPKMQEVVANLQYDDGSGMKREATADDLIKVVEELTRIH

| SMILES | EC50 [1] [nM] | EC50 [2] [nM] |
| --- | --- | --- |
| O=C1CCC(N2Cc3cc(O[C@H]4CCCC[C@@H]4N4CC(C5CCCC(F)(F)C5)C4)ccc3C2=O)C(=O)N1 (stereo partly drawn) [Compound 20, 3-(5-(((1S,2S)-2-(3-(3,3-difluorocyclohexyl)azetidin-1-yl)cyclohexyl)oxy)-1-oxoisoindolin-2-yl)piperidine-2,6-dione] | 4 | 4 |
| O=C1CCC(N2Cc3cc(O[C@H]4CCCC[C@@H]4N4CC(C5CCC5)C4)ccc3C2=O)C(=O)N1 (stereo partly drawn) [Compound 5, 3-(5-(((1S,2S)-2-(3-cyclobutylazetidin-1-yl)cyclohexyl)oxy)-1-oxoisoindolin-2-yl)piperidine-2,6-dione] | 9 | 9 |
| O=C1CCC(N2Cc3cc(O[C@H]4CCCC[C@@H]4N4CC(C5CC5)C4)c(F)cc3C2=O)C(=O)N1 (stereo partly drawn) [Compound 26, 3-(5-(((1S,2S)-2-(3-cyclopropylazetidin-1-yl)cyclohexyl)oxy)-6-fluoro-1-oxoisoindolin-2-yl)piperidine-2,6-dione] | 16 | 16 |
| O=C1CCC(N2Cc3cc(O[C@H]4CCCC[C@@H]4N4CC(C5CCCC5)C4)ccc3C2=O)C(=O)N1 (stereo partly drawn) [Compound 6, 3-(5-(((1S,2S)-2-(3-cyclopentylazetidin-1-yl)cyclohexyl)oxy)-1-oxoisoindolin-2-yl)piperidine-2,6-dione] | 5 | 5 |
| O=C1CCC(N2Cc3cc(O[C@H]4CCC[C@@H]4N4CC(C5CCC(F)(F)CC5)C4)ccc3C2=O)C(=O)N1 (stereo partly drawn) [Compound 13, 3-(5-(((1S,2S)-2-(3-(4,4-difluorocyclohexyl)azetidin-1-yl)cyclopentyl)oxy)-1-oxoisoindolin-2-yl)piperidine-2,6-dione] | 5 | 5 |
| O=C1CCC(N2Cc3c(ccc(O[C@H]4CCCC[C@@H]4N4CC(C5CC5)C4)c3F)C2=O)C(=O)N1 (stereo partly drawn) [Compound 24, 3-(5-(((1S,2S)-2-(3-cyclopropylazetidin-1-yl)cyclohexyl)oxy)-4-fluoro-1-oxoisoindolin-2-yl)piperidine-2,6-dione] | 49 | 49 |
| O=C1CCC(N2Cc3cc(O[C@H]4CCCC[C@@H]4N4CC(C5CC(F)(F)C5)C4)ccc3C2=O)C(=O)N1 (stereo partly drawn) [Compound 18, 3-(5-(((1S,2S)-2-(3-(3,3-difluorocyclobutyl)azetidin-1-yl)cyclohexyl)oxy)-1-oxoisoindolin-2-yl)piperidine-2,6-dione] | 12 | 12 |
| O=C1CCC(N2Cc3cc(O[C@H]4CCCC[C@@H]4N4CC(C5CC5)C4)ccc3C2=O)C(=O)N1 (stereo partly drawn) [Compound 3, 3-(5-(((1S,2S)-2-(3-cyclopropylazetidin-1-yl)cyclohexyl)oxy)-1-oxoisoindolin-2-yl)piperidine-2,6-dione] | 9 | 9 |
| O=C1CCC(N2Cc3cc(O[C@H]4CCCC[C@@H]4N4CC(C5CCC5)C4)c(F)cc3C2=O)C(=O)N1 (stereo partly drawn) [Compound 27, 3-(5-(((1S,2S)-2-(3-cyclobutylazetidin-1-yl)cyclohexyl)oxy)-6-fluoro-1-oxoisoindolin-2-yl)piperidine-2,6-dione] | 18 | 18 |
| O=C1CCC(N2Cc3c(ccc(O[C@H]4CCCC[C@@H]4N4CC(C5CCC5)C4)c3F)C2=O)C(=O)N1 (stereo partly drawn) [Compound 25, 3-(5-(((1S,2S)-2-(3-cyclobutylazetidin-1-yl)cyclohexyl)oxy)-4-fluoro-1-oxoisoindolin-2-yl)piperidine-2,6-dione] | 28 | 28 |
| O=C1CCC(N2Cc3cc(O[C@H]4CCC[C@@H]4N4CC(C5CC5)C4)ccc3C2=O)C(=O)N1 (stereo partly drawn) [Compound 22, 3-(5-(((1S,2S)-2-(3-cyclopropylazetidin-1-yl)cyclopentyl)oxy)-1-oxoisoindolin-2-yl)piperidine-2,6-dione] | 22 | 22 |

Stronger by EC50 [1], values ahead:

| EC50 [1] [nM] | EC50 [2] [nM] | SMILES |
| --- | --- | --- |
| 2 | 2 | O=C1CCC(N2Cc3cc(O[C@H]4CCCC[C@@H]4N4CC(C5CCC(F)(F)CC5)C4)ccc3C2=O)C(=O)N1 (stereo partly drawn) [Compound 2, 3-(5-(((1S,2S)-2-(3-(4,4-difluorocyclohexyl)azetidin-1-yl)cyclohexyl)oxy)-1-oxoisoindolin-2-yl)piperidine-2,6-dione] |
| 1 | 1 | CCOC1CCC(C2CN([C@H]3CCCC[C@@H]3Oc3ccc4c(c3)CN(C3CCC(=O)NC3=O)C4=O)C2)CC1 (stereo partly drawn) [Compound 19, 3-(5-(((1S,2S)-2-(3-(4-ethoxycyclohexyl)azetidin-1-yl)cyclohexyl)oxy)-1-oxoisoindolin-2-yl)piperidine-2,6-dione] |
| 1 | 1 | CC(C)OC1CCC(C2CN([C@H]3CCCC[C@@H]3Oc3ccc4c(c3)CN(C3CCC(=O)NC3=O)C4=O)C2)CC1 (stereo partly drawn) [Compound 17, 3-(5-(((1S,2S)-2-(3-((trans)-4-isopropoxycyclohexyl)azetidin-1-yl)cyclohexyl)oxy)-1-oxoisoindolin-2-yl)piperidine-2,6-dione] |
| 1 | 1 | O=C1CCC(N2Cc3cc(O[C@H]4CCCC[C@@H]4N4CC(C5CCC(OC(F)F)CC5)C4)ccc3C2=O)C(=O)N1 (stereo partly drawn) [Compound 21, 3-(5-(((1S,2S)-2-(3-(4-(difluoromethoxy)cyclohexyl)azetidin-1-yl)cyclohexyl)oxy)-1-oxoisoindolin-2-yl)piperidine-2,6-dione] |
| 2 | 2 | CC(C)OC1CCC(C2CN([C@H]3CCCC[C@@H]3Oc3ccc4c(c3)CN(C3CCC(=O)NC3=O)C4=O)C2)CC1 (stereo partly drawn) [Compound 16, 3-(5-(((1S,2S)-2-(3-((cis)-4-isopropoxycyclohexyl)azetidin-1-yl)cyclohexyl)oxy)-1-oxoisoindolin-2-yl)piperidine-2,6-dione] |
| 3 | 3 | O=C1CCC(N2Cc3cc(O[C@H]4CCCC[C@@H]4N4CC(C5CCCCC5)C4)ccc3C2=O)C(=O)N1 (stereo partly drawn) [Compound 1, 3-(5-(((1S,2S)-2-(3-cyclohexylazetidin-1-yl)cyclohexyl)oxy)-1-oxoisoindolin-2-yl)piperidine-2,6-dione] |

Source: US20240287037A1, “CYCLOALKYL COMPOUNDS AND PHARMACEUTICAL COMPOSITIONS THAT MODULATE IKZF2” (Plexium, Inc., priority 2021, published 2024)
